Source: patent US20100022542A1, “COMPOUNDS EXHIBITING THROMBOPOIETIN RECEPTOR AGONISM” (Shionogi & Co., Ltd., priority 2000, published 2010)

Biological target: T1, human TPO receptor (hTPOR) (Homo sapiens, UniProt P40238)
T1 construct: expressed in transfected cells; host or cells: BaF-B03 (murine IL-3 dependent cell line)
T1 sequence (P40238 26-635): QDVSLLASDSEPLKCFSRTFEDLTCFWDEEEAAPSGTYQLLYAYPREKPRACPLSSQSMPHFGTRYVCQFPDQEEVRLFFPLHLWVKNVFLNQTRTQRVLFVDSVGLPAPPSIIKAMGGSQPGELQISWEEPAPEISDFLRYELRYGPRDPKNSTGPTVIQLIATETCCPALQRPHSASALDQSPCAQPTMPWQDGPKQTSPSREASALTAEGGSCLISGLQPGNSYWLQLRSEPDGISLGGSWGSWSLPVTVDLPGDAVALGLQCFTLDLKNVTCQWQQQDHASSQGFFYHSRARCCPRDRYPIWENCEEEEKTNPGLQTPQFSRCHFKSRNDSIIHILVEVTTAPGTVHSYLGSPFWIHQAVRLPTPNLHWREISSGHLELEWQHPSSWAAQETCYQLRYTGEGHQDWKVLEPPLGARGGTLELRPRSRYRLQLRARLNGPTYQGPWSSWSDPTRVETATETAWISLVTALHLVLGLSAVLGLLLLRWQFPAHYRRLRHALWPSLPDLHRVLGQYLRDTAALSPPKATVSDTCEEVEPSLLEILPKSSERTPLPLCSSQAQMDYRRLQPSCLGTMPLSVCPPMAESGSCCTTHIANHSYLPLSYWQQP
Experiment: Proliferation of TPO dependent BaF/hTPOR cells, WST-1, thrombopoietic activity ED50 (Test Example 3)
Type: cell-based
Settings: 20 h incubation then WST-1 4 h, absorbance at 450 nm
Text: FIG. 2: The chart represents proliferation of the human TPO dependent cells bearing human TPO receptors by the present invention compound, wherein the x-axis is concentration of the present invention compound, and the y-axis is the absorbance as an indicator of cell proliferation. Open circles indicate a response of human TPO, and closed circles indicate a response of the compound (B-1).
The TPO dependent BaF/hTPOR cell line which was established by introducing human TPO receptor (hTPOR) into BaF-B03 cells according to Collins et al (J. Cell. Physiol., 137:293-298 (1988)) was used to test the thrombopoietic activity of the present compound. The DNA sequences and encoded peptide sequences for human hTPOR have been described by Vigon et al (Proc. Natl. Acad. Sci. USA, 89:5640-5644 (1992)). TPO dose not have any ability to support proliferation of interleukin-3 dependent parental cell line BaF-B03. BAF/hTPOR cells were maintained in RPMI medium and WEHI-3B conditioned medium as a source of murine interleukin-3 (IL-3). These cells were washed and resuspended in RPMI medium without a source of murine IL-3 and seeded into each well of 96-well microtiter plates at a density of 5×10^4 cells per well in the absence or presence of various concentration of hTPO or the present compound. After incubation at 37° C. for 20 hours in the 5% CO2 incubator, 10% WST-1 reagent (Takara Biomedicals, Japan) was added to each wells and the cells were further incubated for 4 hours. Effect of the present compound on the growth of BAF/mTPOR cell line which was established by introducing murine TPO receptor (mTPOR) into BAF-B03 cells is shown in FIG. 3. Table 8 exemplifies the ED50 for tested compounds of the present invention, wherein the ED50 is the half concentration of the concentration showing the maximum thrombopoietic activity.

Row | Compound | EC50
1 | CCOC(=O)/C=C/c1ccc(C(=O)Nc2nc(-c3ccc(Cl)c(Cl)c3)cs2)cc1 [Compound A-3] | 218 nM
2 | O=C(O)/C=C/c1ccc(C(=O)Nc2nc(-c3ccc(Cl)c(Cl)c3)cs2)cc1 [Compound A-4] | 124 nM
3 | CCOC(=O)C(=Cc1ccc(C(=O)Nc2nc(-c3ccc(Cl)c(Cl)c3)cs2)cc1)CC [Compound A-5] | 984 nM
4 | CCC(=Cc1ccc(C(=O)Nc2nc(-c3ccc(Cl)c(Cl)c3)cs2)cc1)C(=O)O [Compound A-6] | 248 nM
5 | CC(C(=O)O)=C(C)c1ccc(C(=O)Nc2nc(-c3ccc(Cl)c(Cl)c3)cs2)cc1 [Compound A-8] | 529 nM
6 | CCOC(=O)C(C)=Cc1ccc(C(=O)Nc2nc(-c3ccc(F)c(F)c3)cs2)cc1 [Compound A-9] | 504 nM
7 | CC(=Cc1ccc(C(=O)Nc2nc(-c3ccc(F)c(F)c3)cs2)cc1)C(=O)O [Compound A-10] | 365 nM
8 | CCOC(=O)C(Cl)=Cc1ccc(C(=O)Nc2nc(-c3ccc(Cl)c(Cl)c3)cs2)cc1 [Compound A-11] | 33.5 nM
9 | O=C(O)/C(Cl)=C/c1ccc(C(=O)Nc2nc(-c3ccc(Cl)c(Cl)c3)cs2)cc1 [Compound A-14] | 17 nM
10 | C/C(=C\c1ccc(C(=O)Nc2nc(-c3cccc(F)c3)cs2)cc1)C(=O)O [Compound A-18] | 132 nM
11 | CCOC(=O)/C(C)=C/c1ccc(C(=O)Nc2nc(-c3cccc(OC(F)(F)F)c3)cs2)cc1 [Compound A-19] | 170 nM
12 | C/C(=C\c1ccc(C(=O)Nc2nc(-c3cccc(OC(F)(F)F)c3)cs2)cc1)C(=O)O [Compound A-20] | 610 nM
13 | CCOC(=O)/C(C)=C/c1ccc(C(=O)Nc2nc(-c3ccc(F)cc3)cs2)cc1 [Compound A-23] | 337 nM
14 | C/C(=C\c1ccc(C(=O)Nc2nc(-c3ccc(F)cc3)cs2)cc1)C(=O)O [Compound A-24] | 288 nM
15 | CCOC(=O)/C(C)=C/c1ccc(C(=O)Nc2nc(-c3ccc(C(F)(F)F)cc3)cs2)cc1 [Compound A-25] | 150 nM
16 | C/C(=C\c1ccc(C(=O)Nc2nc(-c3ccc(C(F)(F)F)cc3)cs2)cc1)C(=O)O [Compound A-26] | 98 nM
17 | CCOC(=O)/C(C)=C/c1ccc(C(=O)Nc2nc(-c3cccc(C(F)(F)F)c3)cs2)cc1 [Compound A-27] | 193 nM
18 | C/C(=C\c1ccc(C(=O)Nc2nc(-c3cccc(C(F)(F)F)c3)cs2)cc1)C(=O)O [Compound A-28] | 99 nM
19 | CCOC(=O)/C(Cl)=C/c1ccc(C(=O)Nc2nc(-c3cccc(F)c3)cs2)cc1 [Compound A-29] | 289 nM
20 | O=C(O)/C(Cl)=C/c1ccc(C(=O)Nc2nc(-c3cccc(F)c3)cs2)cc1 [Compound A-30] | 274 nM

Row | Compound | EC50
21 | CCOC(=O)/C(Cl)=C/c1ccc(C(=O)Nc2nc(-c3cccc(OC(F)(F)F)c3)cs2)cc1 [Compound A-31] | 56 nM
22 | O=C(O)/C(Cl)=C/c1ccc(C(=O)Nc2nc(-c3cccc(OC(F)(F)F)c3)cs2)cc1 [Compound A-32] | 40 nM
23 | CCOC(=O)/C(Cl)=C/c1ccc(C(=O)Nc2nc(-c3ccc(F)c(F)c3)cs2)cc1 [Compound A-35] | 96 nM
24 | O=C(O)/C(Cl)=C/c1ccc(C(=O)Nc2nc(-c3ccc(F)c(F)c3)cs2)cc1 [Compound A-36] | 95 nM
25 | CCOC(=O)/C(Cl)=C/c1ccc(C(=O)Nc2nc(-c3ccc(F)cc3)cs2)cc1 [Compound A-37] | 96 nM
26 | O=C(O)/C(Cl)=C/c1ccc(C(=O)Nc2nc(-c3ccc(F)cc3)cs2)cc1 [Compound A-38] | 245 nM
27 | CCOC(=O)/C(Cl)=C/c1ccc(C(=O)Nc2nc(-c3ccc(C(F)(F)F)cc3)cs2)cc1 [Compound A-39] | 44 nM
28 | O=C(O)/C(Cl)=C/c1ccc(C(=O)Nc2nc(-c3ccc(C(F)(F)F)cc3)cs2)cc1 [Compound A-40] | 47 nM
29 | CCOC(=O)/C(Cl)=C/c1ccc(C(=O)Nc2nc(-c3cccc(C(F)(F)F)c3)cs2)cc1 [Compound A-41] | 39 nM
30 | O=C(O)/C(Cl)=C/c1ccc(C(=O)Nc2nc(-c3cccc(C(F)(F)F)c3)cs2)cc1 [Compound A-42] | 50 nM
31 | O=C(O)/C(F)=C/c1ccc(C(=O)Nc2nc(-c3ccc(Cl)c(Cl)c3)cs2)cc1 [Compound A-43] | 71 nM
32 | O=C(O)/C(F)=C/c1ccc(C(=O)Nc2nc(-c3cccc(C(F)(F)F)c3)cs2)cc1 [Compound A-44] | 227 nM
33 | O=C(O)C(F)=Cc1ccc(C(=O)Nc2nc(-c3cccc(OC(F)(F)F)c3)cs2)cc1 [Compound A-45] | 203 nM
34 | O=C(O)C(F)=Cc1ccc(C(=O)Nc2nc(-c3ccc(C(F)(F)F)cc3)cs2)cc1 [Compound A-46] | 263 nM
35 | O=C(O)/C(Cl)=C/c1ccc(C(=O)Nc2nc(-c3ccc(-c4ccccc4)cc3)cs2)cc1 [Compound A-47] | 512 nM
36 | CC(C)(C)c1ccc(-c2csc(NC(=O)c3ccc(/C=C(\Cl)C(=O)O)cc3)n2)cc1 [Compound A-48] | 473 nM
37 | CCCCCc1ccc(-c2csc(NC(=O)c3ccc(/C=C(\Cl)C(=O)O)cc3)n2)cc1 [Compound A-49] | 116 nM
38 | O=C(O)/C(Cl)=C/c1ccc(C(=O)Nc2nc(-c3ccccc3F)cs2)cc1 [Compound A-50] | 113 nM
39 | O=C(O)/C(Cl)=C/c1ccc(C(=O)Nc2nc(-c3c(F)cccc3F)cs2)cc1 [Compound A-51] | 568 nM
40 | COc1cccc(-c2csc(NC(=O)c3ccc(/C=C(\Cl)C(=O)O)cc3)n2)c1 [Compound A-52] | 425 nM

Row | Compound | EC50
41 | O=C(O)/C(Cl)=C/c1ccc(C(=O)Nc2nc(-c3cccc(-c4ccccc4)c3)cs2)cc1 [Compound A-54] | 65 nM
42 | CCCCc1cccc(-c2csc(NC(=O)c3ccc(/C=C(\Cl)C(=O)O)cc3)n2)c1 [Compound A-55] | 37 nM
43 | O=C(O)/C(Cl)=C/c1ccc(C(=O)Nc2nc(-c3ccc(F)cc3F)cs2)cc1 [Compound A-56] | 66 nM
44 | O=C(O)/C(Cl)=C/c1ccc(C(=O)Nc2nc(-c3cccc(C(F)(F)F)c3F)cs2)cc1 [Compound A-57] | 19 nM
45 | O=C(O)/C(Cl)=C/c1ccc(C(=O)Nc2nc(-c3cc(F)ccc3F)cs2)cc1 [Compound A-58] | 497 nM
46 | CCCCOc1ccc(-c2csc(NC(=O)c3ccc(/C=C(\Cl)C(=O)O)cc3)n2)cc1 [Compound A-59] | 164 nM
47 | O=C(O)/C(Cl)=C/c1ccc(C(=O)Nc2nc(-c3ccc(C(F)(F)F)cc3F)cs2)cc1 [Compound A-60] | 23 nM
48 | COc1ccc(-c2csc(NC(=O)c3ccc(/C=C(\Cl)C(=O)O)cc3)n2)c(F)c1 [Compound A-61] | 207 nM
49 | O=C(O)/C(Cl)=C/c1ccc(C(=O)Nc2nc(-c3cc(F)c(F)cc3F)cs2)cc1 [Compound A-62] | 101 nM
50 | O=C(O)/C(Cl)=C/c1ccc(C(=O)Nc2nc(-c3ccc(F)c(Br)c3)cs2)cc1 [Compound A-63] | 25 nM
51 | CC(C)Cc1ccc(-c2csc(NC(=O)c3ccc(/C=C(\Cl)C(=O)O)cc3)n2)cc1 [Compound A-64] | 204 nM
52 | O=C(O)/C(Cl)=C/c1ccc(C(=O)Nc2nc(-c3cc(C(F)(F)F)cc(C(F)(F)F)c3)cs2)cc1 [Compound A-65] | 28 nM
53 | Cn1cc(-c2csc(NC(=O)c3ccc(/C=C(\Cl)C(=O)O)cc3)n2)c2ccccc21 [Compound A-66] | 211 nM
54 | O=C(O)/C(F)=C/c1ccc(C(=O)Nc2nc(-c3ccc(F)cc3)cs2)cc1 [Compound A-68] | 222 nM
55 | O=C(O)/C(Cl)=C/c1ccc(C(=O)Nc2nc(-c3ccc(Br)cc3F)cs2)cc1 [Compound A-69] | 71 nM
56 | Cc1ccc(-c2csc(NC(=O)c3ccc(/C=C(\Cl)C(=O)O)cc3)n2)c(F)c1 [Compound A-70] | 89 nM
57 | O=C(O)/C(Cl)=C/c1ccc(C(=O)Nc2nc(-c3cccc(F)c3F)cs2)cc1 [Compound A-72] | 119 nM
58 | O=C(O)/C(Cl)=C/c1ccc(C(=O)Nc2nc(-c3ccc4c(c3)CCC4)cs2)cc1 [Compound A-73] | 75 nM
59 | O=C(O)/C(Cl)=C/c1ccc(C(=O)Nc2nc(-c3ccc4c(c3)CCO4)cs2)cc1 [Compound A-74] | 472 nM
60 | O=C(O)/C(Cl)=C/c1ccc(C(=O)Nc2nc(-c3ccc(F)c(Cl)c3)cs2)cc1 [Compound A-75] | 73 nM
